Values of other authors as cited in patent publication US20040033532A1, “Use of three-dimensional crystal structure coordinates to design and synthesize domain-selective inhibitors for angiotensin-converting enzyme (ACE)” (priority 2002, published 2004).
“Also recorded” adds a separate entry of the source. Like-named read-outs stand apart in the source and are kept apart here. Blank lines part the entries; values can stand above or below the molecule they belong to.

Legend:
rabbit liver ACE = biological target: T1, rabbit liver ACE (Oryctolagus cuniculus, UniProt P12822)
T1 construct: rabbit liver ACE in vitro; from tissue; host or cells: rabbit liver
T1 sequence (P12822 34-1310): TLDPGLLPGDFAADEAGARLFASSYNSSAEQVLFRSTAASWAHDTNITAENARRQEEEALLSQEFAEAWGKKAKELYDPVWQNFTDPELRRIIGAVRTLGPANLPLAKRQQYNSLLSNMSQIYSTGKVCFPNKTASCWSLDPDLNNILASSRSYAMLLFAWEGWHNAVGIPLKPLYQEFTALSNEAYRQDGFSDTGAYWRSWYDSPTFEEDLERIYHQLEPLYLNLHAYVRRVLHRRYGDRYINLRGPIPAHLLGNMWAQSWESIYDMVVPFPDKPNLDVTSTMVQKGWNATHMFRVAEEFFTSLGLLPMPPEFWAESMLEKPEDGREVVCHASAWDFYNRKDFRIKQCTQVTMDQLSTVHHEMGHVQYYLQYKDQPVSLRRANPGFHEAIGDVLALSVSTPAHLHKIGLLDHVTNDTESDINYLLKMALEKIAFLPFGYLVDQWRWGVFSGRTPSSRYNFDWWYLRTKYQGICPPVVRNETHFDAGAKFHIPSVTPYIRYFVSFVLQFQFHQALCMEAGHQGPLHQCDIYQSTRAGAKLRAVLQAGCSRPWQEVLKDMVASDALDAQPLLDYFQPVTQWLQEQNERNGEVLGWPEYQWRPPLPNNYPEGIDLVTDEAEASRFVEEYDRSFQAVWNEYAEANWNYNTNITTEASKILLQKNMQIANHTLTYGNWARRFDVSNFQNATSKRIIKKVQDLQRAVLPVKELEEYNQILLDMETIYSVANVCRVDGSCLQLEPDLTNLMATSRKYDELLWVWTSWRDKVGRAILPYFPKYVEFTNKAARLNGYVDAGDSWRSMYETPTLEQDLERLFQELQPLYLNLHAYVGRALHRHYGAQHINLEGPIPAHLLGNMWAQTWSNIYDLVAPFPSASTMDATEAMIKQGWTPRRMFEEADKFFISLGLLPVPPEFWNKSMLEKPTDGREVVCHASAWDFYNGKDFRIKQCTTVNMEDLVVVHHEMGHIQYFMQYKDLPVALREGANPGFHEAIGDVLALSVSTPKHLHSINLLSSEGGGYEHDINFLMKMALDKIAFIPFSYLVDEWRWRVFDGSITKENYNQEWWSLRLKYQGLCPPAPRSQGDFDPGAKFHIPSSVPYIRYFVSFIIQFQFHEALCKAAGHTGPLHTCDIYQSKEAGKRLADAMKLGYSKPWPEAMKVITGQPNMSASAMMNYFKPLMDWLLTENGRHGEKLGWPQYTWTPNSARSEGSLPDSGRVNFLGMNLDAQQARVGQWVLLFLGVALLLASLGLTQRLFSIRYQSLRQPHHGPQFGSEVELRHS

ACE = ACE (Homo sapiens, UniProt P12821)
Chain of ACE (P12821 30-1306, species assumed): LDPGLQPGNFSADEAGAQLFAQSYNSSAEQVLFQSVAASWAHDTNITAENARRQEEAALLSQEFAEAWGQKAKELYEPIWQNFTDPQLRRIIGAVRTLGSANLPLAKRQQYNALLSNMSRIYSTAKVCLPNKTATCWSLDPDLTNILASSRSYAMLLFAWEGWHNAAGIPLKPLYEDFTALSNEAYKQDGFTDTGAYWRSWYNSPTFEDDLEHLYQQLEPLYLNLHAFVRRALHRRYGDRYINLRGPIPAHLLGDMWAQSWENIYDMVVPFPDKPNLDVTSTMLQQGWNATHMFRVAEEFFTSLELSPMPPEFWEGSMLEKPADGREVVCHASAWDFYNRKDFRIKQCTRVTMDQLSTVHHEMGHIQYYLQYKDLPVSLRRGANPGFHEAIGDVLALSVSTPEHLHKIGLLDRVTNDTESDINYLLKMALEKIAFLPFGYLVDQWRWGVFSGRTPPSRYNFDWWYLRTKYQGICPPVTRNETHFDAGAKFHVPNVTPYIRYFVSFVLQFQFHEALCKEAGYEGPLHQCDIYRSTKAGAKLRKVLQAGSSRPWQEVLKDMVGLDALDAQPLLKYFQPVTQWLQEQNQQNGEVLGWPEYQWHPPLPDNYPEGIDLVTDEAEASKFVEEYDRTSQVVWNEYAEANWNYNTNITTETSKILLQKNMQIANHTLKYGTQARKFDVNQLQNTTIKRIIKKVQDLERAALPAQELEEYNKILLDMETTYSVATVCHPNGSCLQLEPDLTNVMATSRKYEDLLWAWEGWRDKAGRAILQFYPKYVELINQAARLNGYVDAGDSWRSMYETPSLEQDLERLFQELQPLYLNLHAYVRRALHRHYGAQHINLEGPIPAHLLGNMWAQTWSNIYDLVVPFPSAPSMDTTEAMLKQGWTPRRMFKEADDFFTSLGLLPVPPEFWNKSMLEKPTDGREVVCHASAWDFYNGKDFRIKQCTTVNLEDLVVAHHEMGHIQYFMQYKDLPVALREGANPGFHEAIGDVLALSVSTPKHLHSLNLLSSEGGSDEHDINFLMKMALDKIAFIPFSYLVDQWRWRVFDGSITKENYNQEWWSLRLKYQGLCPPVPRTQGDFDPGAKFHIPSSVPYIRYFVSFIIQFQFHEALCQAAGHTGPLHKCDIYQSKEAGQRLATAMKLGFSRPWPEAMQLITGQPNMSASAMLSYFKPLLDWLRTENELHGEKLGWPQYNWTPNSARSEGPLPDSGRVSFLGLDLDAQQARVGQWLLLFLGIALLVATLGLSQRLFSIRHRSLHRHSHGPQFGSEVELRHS

[1] = tested on: ACE N domain and C domain active sites; settings: N domain vs C domain

IC50 (rabbit liver ACE; Hip-His-Leu hydrolysis, rabbit liver ACE, in vitro): 230000 nM | enzyme activity remaining (rabbit liver ACE; after 10 minutes of incubation with 0.4 mM of inhibitor): ~50% | recovery of enzyme activity after dialysis (rabbit liver ACE; after dialysis): could not be recovered
Molecule: C[C@H](NC(=O)/C=C/c1ccccc1)C(=O)N1CCC[C@H]1C(=O)O [Compound 1]

IC50 (ACE; Hip-Gly-Gly as substrate): 7 nM | Ki (ACE; competitive inhibitor of ACE): 2.7 ± 0.2 nM
Molecule: CN(CC(=O)NO)C(=O)[C@@H]1CCCC[C@@H]1C(=O)O [Compound 2]

Molecule: O=C(N[C@@H](Cc1ccccc1)C(=O)CCC(=O)N1CCC[C@H]1C(=O)O)c1ccccc1 [keto-ACE, Bz-Phe Ψ (CO—CH2)Gly-Pro]
domain selectivity of ACE inhibition (in words) [1]: more effective inhibitors of the C domain; also recorded: C-domain specific inhibitor

Molecule: Ac-Asp-Phe-Ψ(PO2—CH2)-Ala-Ala-NH2
domain selectivity of ACE inhibition (in words) [1]: far better inhibitor of the N domain | domain selectivity of ACE inhibition (in words) ([1]; listed as Ac-Asp-Phe-Ψ(PO2—CH2)-Ala-Ala): far better inhibitor of the N-domain

Molecule: Angiotensin (1-7) [Asp^1-Pro^7] (DRVYIHP; Angiotensin 1-7; UniProt P01019 25-31, looked up, fragment) [peptide Asp1-Pro7 of angiotensin]
domain selectivity of ACE inhibition (in words) [1]: more effective inhibitors of the C domain
